What was measured:
soybean (Glycine max) = test: Test C pre-/postemergence: soybean; type: in vivo
Excerpt: (§1) Seeds of plant species selected from blackgrass (Alopecurus myosuroides), bromegrass, downy (downy bromegrass, Bromus tectorum), foxtail, green (green foxtail, Setaria viridis), ryegrass, Italian (Italian ryegrass, Lolium multiflorum), winter wheat (Triticum aestivum), wild oat (Avena fatua), galium (catchweed bedstraw, Galium aparine), bermudagrass (Cynodon dactylon), surinam grass (Brachiaria decumbens), cocklebur (common cocklebur, Xanthium strumarium), corn (Zea mays), large crabgrass (Digitaria sanguinalis), woolly cupgrass (Eriochloa villosa), foxtail, giant (giant foxtail, Setaria faberii), goosegrass (Eleusine indica), johnsongrass (Sorghum halepense), kochia (Kochia scoparia), lambsquarters (Chenopodium album), morningglory (Ipomoea coccinea), nightshade (eastern black nightshade, Solanum ptycanthum), nutsedge, yellow (yellow nutsedge, Cyperus esculentus), pigweed (Amaranthus retroflexus), ragweed (common ragweed, Ambrosia elation), soybean (Glycine max), common (oilseed) sunflower (Helianthus annuus), Russian thistle (Salsola kali) and velvetleaf (Abutilon theophrasti) were planted into a blend of loam soil and sand and treated preemergence with test chemicals formulated in a non-phytotoxic solvent mixture which included a surfactant.
(§2) At the same time, plants selected from these crop and weed species and also barley (winter barley, Hordeum vulgare), canarygrass (Phalaris minor), chickweed (common chickweed, Stellaria media) windgrass (Apera spica-venti) and deadnettle (henbit deadnettle, Lamium amplexicaule) were planted in pots containing Redi-Earth® planting medium (Scotts Company, 14111 Scottslawn Road, Marysville, Ohio 43041) comprising spaghnum peat moss, vermiculite, wetting agent and starter nutrients and treated with postemergence applications of test chemicals formulated in the same manner. Plants ranged in height from 2 to 18 cm (1- to 4-leaf stage) for postemergence treatments.
(§3) Treated plants and controls were maintained in a greenhouse for 13 to 15 days, after which time all species were compared to controls and visually evaluated. Plant response ratings, summarized in Table C, are based on a scale of 0 to 100 where 0 is no effect and 100 is complete control. A dash (-) response means no test result.

[1] = tested on: foxtail, giant (giant foxtail, Setaria faberii); test: Test C pre-/postemergence: foxtail, giant; type: in vivo
Excerpt: as §1, §2, §3

[2] = Postemergence, 16 g ai/ha, scale 0 to 100, 0 no effect, 100 complete control
[3] = Postemergence, 31 g ai/ha, scale 0 to 100 (0 no effect, 100 complete control)
[4] = Postemergence, 62 g ai/ha, scale 0 to 100 (0 no effect, 100 complete control)
[5] = Postemergence, 125 g ai/ha, scale 0 to 100, 0 no effect, 100 complete control
[6] = Postemergence, 250 g ai/ha, scale 0 to 100
[7] = Preemergence, 31 g ai/ha, scale of 0 to 100, 0 is no effect, 100 is complete control
[8] = Preemergence, 62 g ai/ha, scale of 0 to 100, 0 is no effect, 100 is complete control
[9] = Preemergence, 125 g ai/ha, scale 0 to 100, 0 no effect, 100 complete control
[10] = Preemergence, 250 g ai/ha, scale 0 to 100, 0 no effect, 100 complete control
[11] = Preemergence, 16 g ai/ha, scale 0 (no effect) to 100 (complete control)
[12] = Preemergence, 31 g ai/ha, scale 0 (no effect) to 100 (complete control)

| SMILES | Plant response rating, Soybean (soybean (Glycine max); [3]) | Plant response rating, Soybean (soybean (Glycine max); [4]) | Plant response rating, Soybean (soybean (Glycine max); [5]) | Plant response rating, Foxtail, Giant [1, 3] | Plant response rating, Foxtail, Giant [1, 4] | Plant response rating, Foxtail, Giant [1, 5] | Plant response rating, Soybean (soybean (Glycine max); [6]) | Plant response rating, Soybean (soybean (Glycine max); [7]) | Plant response rating, Soybean (soybean (Glycine max); [8]) | Plant response rating, Soybean (soybean (Glycine max); [9]) | Plant response rating, Soybean (soybean (Glycine max); [10]) | Plant response rating, Foxtail, Giant [1, 6] | Plant response rating, Foxtail, Giant [1, 7] | Plant response rating, Foxtail, Giant [1, 8] | Plant response rating, Foxtail, Giant [1, 9] | Plant response rating, Foxtail, Giant [1, 10] | Plant response rating, Soybean (soybean (Glycine max); [12]) | Plant response rating, Foxtail, Giant [1, 12] | further results |
| --- | --- | --- | --- | --- | --- | --- | --- | --- | --- | --- | --- | --- | --- | --- | --- | --- | --- | --- | --- |
| Cc1nn(-c2ccc(C(F)(F)F)cc2)nc1Cc1cccc(C(F)(F)F)c1 [Compound 124] | 55 | 55 | 60 | 15 | 25 | 45 |  |  |  |  |  |  |  |  |  |  |  |  | Plant response rating, Soybean (soybean (Glycine max); [2]): 45; Plant response rating, Foxtail, Giant [1, 2]: 15 |
| CCCc1nn(-c2ccc(F)cc2)nc1Cc1ccnc(C(F)(F)F)c1 [Compound 153] | 55 | 70 | 70 | 45 | 80 | 90 | 85 | 20 | 20 | 35 | 35 | 95 | 100 | 100 | 100 | 100 |  |  |  |
| CCOc1nn(-c2ccc(Br)cc2)nc1Cc1ccnc(C(F)(F)F)c1 [Compound 189] |  |  |  |  |  |  |  |  | 15 | 25 |  |  |  | 100 | 100 |  | 5 | 100 | Plant response rating, Soybean (soybean (Glycine max); [11]): 5; Plant response rating, Foxtail, Giant [1, 11]: 100 |
| CCCc1nn(-c2ccc(C(F)(F)F)c(F)c2)nc1Oc1ccnc(C(F)(F)F)c1 [Compound 185] | 40 | 45 | 45 | 40 | 80 | 90 |  |  | 10 | 40 | 40 | 98 |  | 100 | 100 | 100 | 5 | 100 | Plant response rating, Soybean (soybean (Glycine max); Postemergence, 250 g ai/ha, scale 0 to 100 (0 no effect, 100 complete control)): 55 |
| Cc1nn(-c2ccc(C(F)(F)F)c(F)c2)nc1Cc1ccnc(C(F)(F)F)c1 [Compound 162] | 70 | 70 | 75 | 45 | 55 | 65 | 95 | 15 | 15 |  | 25 | 98 | 98 | 100 | 100 | 100 |  |  |  |
| CCc1nn(-c2ccc(F)cc2)nc1Oc1ccnc(C(F)(F)F)c1 [Compound 166] | 35 | 35 | 35 | 20 | 40 | 40 | 35 |  | 5 | 20 | 35 | 40 |  | 100 | 100 | 100 | 5 | 100 |  |

Reference: patent publication US9302999B2, “Substituted triazoles as herbicides” (E. I. DU PONT DE NEMOURS AND COMPANY, priority 2012, dated 2016)
